Test results: ChEMBL document CHEMBL4680223, “Development of bivalent triarylalkene- and cyclofenil-derived dual estrogen receptor antagonists and downregulators” (Eur J Med Chem, 2020)
Converted amounts (≈) assume the structure as drawn. The source made the active and inactive calls. The rule behind the calls is not given here.

Assays:
[1] = biological target: T1, Estrogen receptor (Homo sapiens, UniProt P03372); assay: Agonist activity at ERalpha (unknown origin) expressed in human U2OS cells at 0.1 to 1 uM measured after 21 hrs by dual luciferase reporter gene assay; type: cell-based; settings: dose 0.1-1 µM
T1 sequence (P03372 whole entry): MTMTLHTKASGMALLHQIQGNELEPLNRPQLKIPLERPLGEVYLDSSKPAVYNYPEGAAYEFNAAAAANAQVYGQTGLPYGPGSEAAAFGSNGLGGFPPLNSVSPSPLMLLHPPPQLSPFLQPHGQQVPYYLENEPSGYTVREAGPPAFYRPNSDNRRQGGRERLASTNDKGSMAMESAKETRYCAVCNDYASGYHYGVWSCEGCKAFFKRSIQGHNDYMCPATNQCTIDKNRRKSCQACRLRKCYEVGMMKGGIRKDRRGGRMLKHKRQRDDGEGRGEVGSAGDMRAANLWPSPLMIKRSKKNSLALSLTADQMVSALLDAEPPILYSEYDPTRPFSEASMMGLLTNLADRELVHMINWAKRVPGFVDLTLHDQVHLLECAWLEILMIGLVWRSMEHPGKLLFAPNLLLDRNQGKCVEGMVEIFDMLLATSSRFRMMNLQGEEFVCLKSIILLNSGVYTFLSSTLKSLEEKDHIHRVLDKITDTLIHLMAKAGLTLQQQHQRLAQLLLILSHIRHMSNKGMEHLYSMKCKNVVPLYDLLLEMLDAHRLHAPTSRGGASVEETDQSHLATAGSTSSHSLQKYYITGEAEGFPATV

[2] = tested on: MCF7; assay: Antiproliferative activity against human MCF7 cells assessed as reduction in cell metabolic activity at 10 uM measured after 72 hrs by modified MTT based EZ4U assay relative to control; type: functional; parameters: scale not given: the % may be the effect or the level left
[3] = biological target: T2, Estrogen receptor beta (Homo sapiens, UniProt Q92731); assay: Antagonist activity at recombinant human GST-tagged ERbeta assessed as inhibition of E2-induced increase in fluorescein-labelled coactivator PGC1 peptide recruitment at 100 nM measured after 30 mins by LanthaScreen TR-FRET assay relative to control; settings: filed as antagonist
T2 sequence (Q92731 whole entry): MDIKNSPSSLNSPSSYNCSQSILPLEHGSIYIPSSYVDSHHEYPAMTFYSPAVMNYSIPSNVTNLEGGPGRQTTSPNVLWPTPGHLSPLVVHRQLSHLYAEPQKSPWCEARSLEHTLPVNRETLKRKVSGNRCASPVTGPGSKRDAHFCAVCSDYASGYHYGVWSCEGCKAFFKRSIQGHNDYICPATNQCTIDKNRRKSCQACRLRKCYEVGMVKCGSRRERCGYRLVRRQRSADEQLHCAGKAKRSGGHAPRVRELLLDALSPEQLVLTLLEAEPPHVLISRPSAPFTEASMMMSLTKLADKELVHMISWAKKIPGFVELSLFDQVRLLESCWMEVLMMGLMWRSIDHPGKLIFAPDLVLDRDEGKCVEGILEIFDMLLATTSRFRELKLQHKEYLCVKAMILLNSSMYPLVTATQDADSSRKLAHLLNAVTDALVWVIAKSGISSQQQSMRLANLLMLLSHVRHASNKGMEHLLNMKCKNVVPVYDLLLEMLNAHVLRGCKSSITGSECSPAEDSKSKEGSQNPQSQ

[4] = biological target: T2, Estrogen receptor beta
[5] = tested on: COS-7; assay: Cytotoxicity against African green monkey COS7 cells assessed as reduction in cell metabolic activity up to 10 uM measured after 72 hrs by modified MTT based EZ4U assay; type: ADME; settings: chlorocebus aethiops, cos-7, 72 h
[6] = biological target: T2, Estrogen receptor beta; remark: listed apart in the source
[7] = biological target: T1, Estrogen receptor
[8] = biological target: T2, Estrogen receptor beta; assay: Agonist activity at recombinant human GST-tagged ERbeta assessed as increase in fluorescein-labelled coactivator PGC1 peptide recruitment at 1 uM by LanthaScreen TR-FRET assay
[9] = physchem; settings: water
Description: Aqueous solubility of compound in water

[10] = biological target: T1, Estrogen receptor; remark: listed apart in the source
[11] = biological target: T2, Estrogen receptor beta; assay: Agonist activity at ERbeta (unknown origin) expressed in human U2OS cells at 0.1 to 1 uM measured after 21 hrs by dual luciferase reporter gene assay; type: cell-based; settings: dose 0.1-1 µM
[12] = biological target: T2, Estrogen receptor beta; assay: Antagonist activity at recombinant human GST-tagged ERbeta assessed as inhibition of E2-induced increase in fluorescein-labelled coactivator PGC1 peptide recruitment at 1 uM measured after 10 mins by LanthaScreen TR-FRET assay; settings: filed as antagonist
[13] = tested on: MCF7; assay: Antiproliferative activity against human MCF7 cells assessed as reduction in cell metabolic activity up to 10 uM measured after 72 hrs by modified MTT based EZ4U assay; type: functional; settings: dose microM <=10, time 72.0 hrs
[14] = biological target: T2, Estrogen receptor beta; assay: Antagonist activity at recombinant human GST-tagged ERbeta assessed as inhibition of E2-induced increase in fluorescein-labelled coactivator PGC1 peptide recruitment at 5 uM measured after 30 mins by LanthaScreen TR-FRET assay relative to control; settings: filed as antagonist
[15] = biological target: T3, Estrogen receptor (Homo sapiens) (UniProt P03372); assay: Selective estrogen receptor alpha degrader activity in human MCF7 cells assessed as down regulation of ERalpha expression at 1 uM measured after 4 hrs in presence of protease inhibitor MG-132 by Western blot analysis; type: cell-based
T3 sequence (whole entry): T1 sequence (P03372 whole entry)

[16] = tested on: MCF7; assay: Antiproliferative activity against human MCF7 cells assessed as cell mass at 10 uM measured after 72 hrs by crystal violet staining based assay relative to control; type: functional
[17] = biological target: T2, Estrogen receptor beta; assay: Antagonist activity at recombinant human GST-tagged ERbeta assessed as inhibition of E2-induced increase in fluorescein-labelled coactivator PGC1 peptide recruitment at 1 uM measured after 10 to 30 mins by LanthaScreen TR-FRET assay relative to control; settings: filed as antagonist, time 10-30 min
[18] = tested on: COS-7; assay: Cytotoxicity against African green monkey COS7 cells assessed as reduction in cell metabolic activity up to 20 uM measured after 72 hrs by modified MTT based EZ4U assay; type: ADME; settings: chlorocebus aethiops, cos-7, 72 h
[19] = tested on: MCF7; assay: cells; settings: Homo sapiens, MCF7, 72 h
Description: Antiproliferative activity against human MCF7 cells assessed as reduction in cell mass measured after 72 hrs by crystal violet staining based assay

[20] = tested on: SK-BR-3; assay: Antiproliferative activity against human SK-BR-3 cells assessed as reduction in cell mass at 10 uM measured after 72 hrs by crystal violet staining based assay relative to control; type: functional; parameters: scale not given: the % may be the effect or the level left
[21] = tested on: MDA-MB-231; assay: Antiproliferative activity against human MDA-MB-231 cells assessed as reduction in cell mass at 10 uM measured after 72 hrs by crystal violet staining based assay relative to control; type: functional; parameters: scale not given: the % may be the effect or the level left
[22] = tested on: MDA-MB-231; assay: Antiproliferative activity against human MDA-MB-231 cells assessed as cell mass at 20 uM measured after 72 hrs by crystal violet staining based assay relative to control; type: functional
[23] = tested on: COS-7; assay: cells; settings: Chlorocebus aethiops, COS-7, 72 h
Description: Cytotoxicity against African green monkey COS7 cells assessed as reduction in cell mass measured after 72 hrs by crystal violet staining based assay

[24] = tested on: SK-BR-3; assay: Antiproliferative activity against human SK-BR-3 cells assessed as cell mass at 20 uM measured after 72 hrs by crystal violet staining based assay relative to control; type: functional
[25] = Drug uptake in African green monkey COS7 cells assessed per mg protein at 10 uM incubated for 24 hrs by fluorescence assay; type: ADME; settings: chlorocebus aethiops, cos-7, 24 h
[26] = Drug uptake in human MCF7 cells assessed per mg protein at 10 uM incubated for 24 hrs by fluorescence assay; type: ADME, cell-based; settings: mcf7, 24 h
[27] = tested on: MCF7; assay: Antiproliferative activity against human MCF7 cells assessed as cell mass at 50 nM measured after 72 hrs by crystal violet staining based assay relative to control; type: functional

| Structure (SMILES) | Activity [1] | inhibition [3] | IC50 [4] | Activity [5] | IC50 [6] | IC50 [7] | Activity [8] | solubility [9] | IC50 [10] | Activity [11] | Activity [18] | other results |
| --- | --- | --- | --- | --- | --- | --- | --- | --- | --- | --- | --- | --- |
| O=C(/C=C/c1ccc(C(=C2CCCCC2)c2ccc(O)cc2)cc1)NCCCNC(=O)/C=C/c1ccc(C(=C2CCCCC2)c2ccc(O)cc2)cc1 | Not Active | 50% | 304 nM | Non-Toxic | 34 nM | 565 nM | Not Active | 15.4 µM (≈ 10.9 µg/mL) | 1.67 nM | Not Active |  | Activity [2]: 53% |
| CC/C(=C(\c1ccc(O)cc1)c1ccc(/C=C/C(=O)O)cc1)c1ccccc1 |  |  |  | Non-Toxic |  |  |  |  |  |  |  | inhibition [12]: Active; Activity [13]: inactive; inhibition [14]: 50%; Activity [15]: inactive; T/C [16]: 33% |
| CC/C(=C(/c1ccc(O)cc1)c1ccc(/C=C/C(=O)NCCCNC(=O)/C=C/c2ccc(/C(=C(\CC)c3ccccc3)c3ccc(O)cc3)cc2)cc1)c1ccccc1 | Not Active | 50% | 153 nM |  | 22.2 nM | 136 nM | Not Active | 24 µM (≈ 18.7 µg/mL) | 1.28 nM | Not Active |  | inhibition [17]: 100%; Activity [15]: Active |
| CC/C(=C(/c1ccc(O)cc1)c1ccc(/C=C/C(=O)NCCCCCNC(=O)/C=C/c2ccc(/C(=C(\CC)c3ccccc3)c3ccc(O)cc3)cc2)cc1)c1ccccc1 |  |  | 256 nM |  | 15.5 nM |  | Not Active | 34 µM (≈ 27.4 µg/mL) |  | Not Active |  |  |
| CC/C(=C(/c1ccc(O)cc1)c1ccc(/C=C/C(=O)NCCNC(=O)/C=C/c2ccc(/C(=C(\CC)c3ccccc3)c3ccc(O)cc3)cc2)cc1)c1ccccc1 | Not Active |  | 78.7 nM |  | 67.7 nM | 260 nM | Not Active | > 40 µM | 15.1 nM | Not Active | Non-Toxic |  |
| O=C(/C=C/c1ccc(C(=C2CCCCC2)c2ccc(O)cc2)cc1)NCCCCCNC(=O)/C=C/c1ccc(C(=C2CCCCC2)c2ccc(O)cc2)cc1 |  |  |  | Non-Toxic |  |  |  | 10 µM (≈ 7.35 µg/mL) |  |  |  | Activity [2]: 50% |
| CC/C(=C(/c1ccc(O)cc1)c1ccc(OCCN(C)C)cc1)c1ccccc1 |  |  |  |  |  |  |  |  |  |  | Non-Toxic | IC50 [19]: 4940 nM; Activity [20]: 58%; Activity [21]: 79%; T/C [22]: -80%; IC50 [23]: 8690 nM; T/C [24]: -81% |
| CC/C(=C(/c1ccc(O)cc1)c1ccc(/C=C/C(=O)NCCN)cc1)c1ccccc1.O=C(O)C(F)(F)F.O=C(O)C(F)(F)F.O=C(O)C(F)(F)F | Not Active |  |  |  |  |  |  |  |  |  | Non-Toxic | Drug uptake [25]: 33.7 nmol; Drug uptake [26]: 35.3 nmol |
| O=C(/C=C/c1ccc(C(=C2CCCCC2)c2ccc(O)cc2)cc1)NCCCCNC(=O)/C=C/c1ccc(C(=C2CCCCC2)c2ccc(O)cc2)cc1 |  | 50% | 54.8 nM | Non-Toxic | 15.7 nM |  | Not Active | 10 µM (≈ 7.21 µg/mL) |  | Not Active |  | Drug uptake [25]: 11.7 nmol; Activity [2]: 69%; Drug uptake [26]: 5.22 nmol |
| C[C@]12CC[C@@H]3c4ccc(O)cc4C[C@@H](CCCCCCCCC[S+]([O-])CCCC(F)(F)C(F)(F)F)[C@H]3[C@@H]1CC[C@@H]2O (some centres undefined) [FULVESTRANT] |  |  |  |  |  |  |  |  |  |  | Non-Toxic | IC50 [19]: 4930 nM; IC50 [23]: 34000 nM; T/C [27]: 64%; T/C [16]: 75.5% |
| O=C(/C=C/c1ccc(C(=C2CCCCC2)c2ccc(O)cc2)cc1)NCCNC(=O)/C=C/c1ccc(C(=C2CCCCC2)c2ccc(O)cc2)cc1 |  |  | 216 nM |  | 27.5 nM |  | Not Active | 6.5 µM (≈ 4.5 µg/mL) |  | Not Active |  |  |
| CC/C(=C(/c1ccc(O)cc1)c1ccc(/C=C/C(=O)NCCCCNC(=O)/C=C/c2ccc(/C(=C(\CC)c3ccccc3)c3ccc(O)cc3)cc2)cc1)c1ccccc1 | Not Active | 50% | 215 nM |  | 44 nM | 290 nM | Not Active | 19 µM (≈ 15.1 µg/mL) | 18.9 nM | Not Active | Non-Toxic | inhibition [17]: 100%; Drug uptake [25]: 3.92 nmol; Drug uptake [26]: 4.67 nmol |
